What was measured:
Sprague-Dawley male rats [1] = type: in vivo, rat; conditions: absorption enhancer in insulin formulation, pulmonary administration
Procedure: Sprague-Dawley male rats weighted 200-250 g were randomly divided into 7 groups. […] Group 1 was the control group, wherein each rat was administered with Formulation A only.
After administering the formulations to the lung for 0, 5, 15, 30, 60, 90, 120, 180, 240, and 300 minutes, 0.25 ml of blood sample was collected from each rat. After the pulmonary administration for 5 hours, an excess amount of pentobarbital sodium (3 ml) was injected into the femoral artery of the rats. After 5 minutes, the rats were bled and then pulmonary perfusion with phosphate buffer solution was performed.
The collected first 5 ml pulmonary perfusion samples were centrifuged at 350×g in 4° C. for 10 minutes. […]
Based on the pigmentation principle of Biuret reaction (British Pharmacopoeia, p. A23 (1998)), the amount of total protein was determined by measuring the value of OD546 with Autoanalyzer Hitachi 7150; then, the value was converted into the concentration of the protein (the results are shown in Table 3).
Based on the standard operation procedures of the GSCC (German Society of Clinical Chemistry; Recommendation of the German Society for Clinical Chemistry: Z. Klin. Chem. Klin. Biochem., 10, 287-288, 1972), the activity of LDH was determined by measuring the change of OD340 with Autoanalyzer Hitachi 7150; then, the change was converted into the activity of LDH (the results are shown in Table 3).

Sprague-Dawley male rats [2] = test: In vivo bioavailability study: plasma glucose decrease after pulmonary administration to rats; design: species or system rat; conditions: enhancer added to insulin formulation
Procedure: Sprague-Dawley male rats weighted 200-250 g were randomly divided into 7 groups. According to the method disclosed in Enna, S. T. et al. (J. Physiol., 1972, 222: 409-414), after the rats were narcotized by abdominally injecting pentobarbital sodium (28.6 ml/kg), catheters were inserted into the trachea and the left femoral artery, respectively, from the cut neck. Group 1 was the control group, wherein each rat was administered with Formulation A only.
The collected blood samples were centrifuged at 3000 rpm in 4° C. for 15 minutes. The upper layer of the plasma was collected. […] The concentrations of insulin in the upper layer samples of plasma were determined by the utilization of a Rat Insulin ELISA Kit (Mercodia), and the pharmacokinetic parameters of the absorption enhancers were further analyzed.

Compound | toxic side effects in the lung (Sprague-Dawley male rats [1]) | bioavailability of insulin, maximal increase by addition of absorption enhancer (Sprague-Dawley male rats [2]) [%]
LPTC-lauroyl [L-LPTC] | would not induce toxic side effects in the lung | 
CCCCCCCC/C=C\CCCCCCCC(=O)OCCOCC(OCCO)C1OCC(OCCO)C1OCCO (stereo not drawn) [Tween-80] | would not induce toxic side effects in the lung | 84.6

From US8058236B2, “Aqueous inhalation pharmaceutical composition” (Development Center for Biotechnology, priority 2005, dated 2011)
